Publication PMC8158687, “Xanthones Active against Multidrug Resistance and Virulence Mechanisms of Bacteria” (Antibiotics, 2021)

What was measured:
[1] = system: S. aureus 272123; assay: Efflux pump inhibition assay (real-time ethidium bromide accumulation); type: cell-based, Staphylococcus aureus; settings: compound 50 µM, EB 1 µg/mL, minute 60
Experimental: Compounds 1–20 were assessed for their capability of modulating ethidium bromide (EB) accumulation on two resistant strains. […] However, norA is a core gene of the S. aureus as a species, which means that the NorA pump occurs in all S. aureus strains.
(§1) Salmonella enterica serovar Typhimurium SE03, was used as a Gram-negative bacterium. This strain has a deletion of the acrA gene, which was predicted with the least affinity for the compounds. The aim of these studies was to perform a first screening of these compounds and their ability to modulate the efflux of EB. […] The relative fluorescence index (RFI) was calculated based on the means of relative fluorescence units, depicted in Table 2.
(§2) Compounds 1–20 were evaluated for their ability to inhibit efflux pumps in SE03 and S. aureus 272123 strains, through the real-time fluorimetry, monitoring the intracellular accumulation of EB, an efflux pump substrate. This was determined by the automated method using a CLARIOstar Plus plate reader (BMG Labtech, Ortenberg, Germany). Reserpine and CCCP were applied at 25 µM as positive controls, and the solvent DMSO was applied at 1% v/v. The bacterial strains were incubated in an appropriate culture media (TSB—S. aureus 272123; LB-B—SE03) at 37 °C until they reached an optical density (OD) between 0.4 and 0.6 at λ = 600 nm. The culture was centrifuged at 13,000× g for 3 min, and the pellet washed and resuspended with PBS. The suspension was centrifuged again in the same conditions and resuspended in PBS. The compounds were applied at 50 µM in a solution of a non-toxic concentration of EB (1 µg/mL) in PBS. Then, 50 µL of this solution were transferred into a 96-well black microtiter plate (Greiner Bio-One Hungary Kft, Mosonmagyaróvár, Fertősor, Hungary), and 50 µL of bacterial suspension (OD600 0.4–0.6) were added to each well. The plates were placed into the CLARIOstar plate reader, and the fluorescence was monitored at excitation and emission wavelengths of 530 nm and 600 nm every minute for one hour on a real-time basis. From the real-time data, the activity of the compounds, namely the RFI of the last time point (minute 60) of the EB accumulation assay, was calculated according to the following formula:(1) RFI=RFtreated−RFuntreated/RFuntreated where RFtreated is the relative fluorescence (RF) at the last time point of EB accumulation curve in the presence of the compound, and RFuntreated is the RF at the last time point of the EB accumulation curve of the untreated control, having only the solvent (DMSO) control. The accumulation curves were designed using Microsoft Excel®.

[2] = system: SE03 (acrA gene-inactivated Salmonella enterica serovar Typhimurium SL1344); assay: as above; type: cell-based; settings: compound 50 µM, EB 1 µg/mL, minute 60
Experimental: as §1, §2

[3] = system: S. aureus ATCC 29213; assay: Inhibition of biofilm formation (crystal violet); type: cell-based, Staphylococcus aureus; settings: half the MIC, or 100 µM if MIC >100 µM, 48 h, 30 °C
[4] = system: S. aureus 272123; assay: Inhibition of biofilm formation (crystal violet); type: cell-based, Staphylococcus aureus; settings: half the MIC, or 100 µM if MIC >100 µM, 48 h, 30 °C
Experimental: The biofilm inhibition, presented in percentages (%), was calculated based on the mean of absorbance units.
The bacterial strains used were the Gram-positive S. aureus ATCC 25923 and S. aureus 272123. The detection of the biofilm formation was possible with the use of the dye crystal violet (CV; 0.1% v/v). The initial inoculum was incubated in TSB overnight, and then diluted to an OD600 of 0.1. Then, the bacterial suspension was added to 96-well microtiter plates and the compounds were added at half the MIC. […] The final volume in each well was 200 µL. […] The plates were incubated at 30 °C for 48 h, with gentle stirring (100 rpm). After this incubation period, the TSB medium was discarded, and the plates were washed with tap water to remove unattached cells. Afterwards, 200 µL of a 0.1% v/v CV solution were added to the wells and incubated for 15 min at room temperature. Then, the CV solution was removed from the wells, and the plates were washed again with tap water, and 200 µL of a 70% ethanolic solution were added to the wells. The biofilm formation was determined by measuring the OD600 using a Multiscan EX ELISA plate reader (Thermo Labsystems, Cheshire, WA, USA). The anti-biofilm effect of the compounds was expressed as the percentage (%) of decrease in biofilm formation.

[5] = system: Chromobacterium violaceum wild type 85 (wt85); assay: Quorum sensing inhibition assay (disk, pigment production); type: cell-based; settings: read-out: Quorum Sensing Inhibition (mm) ± SD
From the text: (§3) The sensor strain Chromobacterium violaceum CV026 and the acyl-homoserine lactones (AHLs) producer strain Sphingomonas paucimobilis Ezf 10-17 (EZF) were inoculated as parallel lines, and the AHL producers, Chromobacterium violaceum wild type 85 (wt85) and Serratia marcescens AS-1 were inoculated as a single line.
(§4) For the QS tests, all the bacteria used were Gram-negative. The bacteria used were Chromobacterium violaceum wild type 85 (wt85), characterized by the AHL signal molecule-mediated production of the purple violacein pigment, capable of endogenous QS-signal molecule production (N-hexanoyl-L-HSL), C. violaceum CV026 (CV026), a Tn5 transposase-mutant, AHL-signal molecule indicator strain (produces purple violacein pigment in the presence of AHL), which is incapable of endogenous QS-signal molecule-production, but useful in the detection of external stimuli, Sphingomonas paucimobilis Ezf 10-17 (EZF), AHL-producing-strain (used with C. violaceum CV026), and Serratia marcescens AS-1, characterized by the AHL signal molecule-mediated production of the orange–red pigment prodigiosin (2-methyl-3-pentyl-6-methoxyprodigiosin), capable of endogenous QS-signal molecule production (N-hexanoyl-L-HSL), were applied.
(§5) The QS inhibitory effect of the compounds was examined on the EZF and the sensor CV026 strains, on the wt85 strain, and on S. marcescens, for 4, 5, 11, 12, 16, 19, and 20. The method used was the parallel inoculation method, where pair combinations of the used sensor strain CV026 and the N-acyl-homoserine lactone (AHL)-producing strain EZF were inoculated directly onto the LB*-A agar surface in parallel, at an approximate distance of 5 mm from each other. S. marcescens AS-1 and wt85 were inoculated as a single line. Filter paper disks (7 mm in diameter) were placed on the center of the inoculated line(s) and impregnated with 8 µL of a solution of 10 mM of the compounds. […] The agar plates were incubated at room temperature (20 °C) for 24–48 h. The QS inhibition was accessed visually, through the inhibition of pigment production. The discolored, but intact, bacterial colonies were measured with a ruler.

[6] = system: Serratia marcescens AS-1; assay: as above; type: cell-based; settings: AS1, read-out: Quorum Sensing Inhibition (mm) ± SD
From the text: as §3, §4, §5

[7] = system: EZF + CV026 (Sphingomonas paucimobilis Ezf 10-17 + Chromobacterium violaceum CV026); assay: Quorum sensing inhibition assay (parallel inoculation, pigment production); type: cell-based; settings: read-out: Quorum Sensing Inhibition (mm) ± SD
From the text: as §3, §4, §5

[8] = Cytotoxicity assay (MTT); type: cell-based, mouse; settings: mouse, NIH/3T3 mouse fibroblast cells, 24 h, MTT, read-out: Cytotoxicity IC50 (µM) ± SD
Experimental: (§6) In order to apply efflux pump inhibitors to treat patients, several issues should be addressed.
(§7) Mouse fibroblasts (NIH/3T3, ATCC CRL-1658TM) were cultivated in DMEM (Gibco 52100-039) and supplemented with 10% heat-inactivated fetal bovine serum (Biowest, VWR International Kft, Debrecen, Hungary), 2 mM of L-glutamine, 1 mM Na pyruvate, 100 U/L and 10 mg/L penicillin/streptomycin mixture (Sigma-Aldrich Chemie GmbH, Steinheim, Germany), respectively, and 0.1% nystatin (8.3 g/L in ethylene glycol). The adherent cells were detached using a combination of 0.25% Trypsin–Versene (EDTA) solution for 5 min at 37 °C. Before each cytotoxicity assay using this cell line, cells were seeded in untreated 96-well flat-bottom microtiter plates, following a 4-h incubation period in a humidified atmosphere (5% CO2, 95% air) at 37 °C [60].
(§8) The cytotoxicity of 4, 12, 16, 19, and 20 was assessed in NIH/3T3 cells. The compounds were added to the cells distributed into 96-well flat bottom microtiter plates at concentrations of […] and initially incubated for 24 h, after which a solution of MTT in PBS was added to each well and incubated for another 4 h. The concentrations used were the same as in the MIC assay. After this, 100 μL of SDS (10% in a 0.01 M HCl solution) were added to each well and incubated overnight at 37 °C. Doxorubicin was used as the positive control. Cell growth was determined in quadruplicate by measuring OD at λ = 540 nm (reference 630 nm) in a Multiscan EX ELISA reader (Thermo Labsystems, Cheshire, WA, USA). The percentage of inhibition of cell growth was determined according to the equation: (2) 100−(ODsample−ODmedium control/ODcell control−ODmedium control)×100

[9] = system: NIH/3T3 mouse fibroblast cells; assay: Cytotoxicity assay (MTT); type: cell-based
Experimental: as §6, §7, §8

[10] = system: extended-spectrum β-lactamase producing strain; set-up: method as in PMID 32455828; settings: previous results; ref [14]; cited from earlier work

Compound: COc1cc(CBr)c2c(=O)c3ccccc3oc2c1OC [Compound 12]
- RFI ± SD (relative fluorescence index) [1]: 0.11 ± 0.30 ^4
- RFI ± SD (relative fluorescence index) [2]: 1.75 ± 1.57 ^9
- Inhibition of Biofilm Formation (%) ± SD [3]: 0 ^1%
- Inhibition of Biofilm Formation (%) ± SD [4]: 6.27 ± 1.41 ^3%
- zone of inhibition at 10000 µM [5]: 0 mm
- zone of inhibition at 10000 µM [6]: 0 mm
- zone of inhibition at 10000 µM [7]: 30 ± 0.5 mm
- IC50 at 24 h [8]: 54.6 ± 5.3 µM
- Cytotoxicity (in words) [9]: moderate cytotoxicity

Compound: Cc1c(O)cc2oc3ccccc3c(=O)c2c1O [Compound 5]
- RFI ± SD (relative fluorescence index) [1]: 0.16 ± 0.08 ^2
- RFI ± SD (relative fluorescence index) [2]: 1.74 ± 0.22 ^7
- Inhibition of Biofilm Formation (%) ± SD [3]: 0 ^1%
- Inhibition of Biofilm Formation (%) ± SD [4]: 61.62 ± 16.51 ^3%
- zone of inhibition at 10000 µM [5]: 0 mm
- zone of inhibition at 10000 µM [6]: 0 mm
- zone of inhibition at 10000 µM [7]: 0 mm

Compound: COc1ccc2c(=O)c3c(C=O)cc(OC)c(OC)c3oc2c1 [Compound 16]
- RFI ± SD (relative fluorescence index) [1]: 5.49 ± 8.04 ^5
- RFI ± SD (relative fluorescence index) [2]: 0.13 ± 0.15 ^10
- Inhibition of Biofilm Formation (%) ± SD [3]: 0 ^2%
- Inhibition of Biofilm Formation (%) ± SD [4]: 58.98 ± 12.00 ^4%
- zone of inhibition at 10000 µM [5]: 0 mm
- zone of inhibition at 10000 µM [6]: 0 mm
- zone of inhibition at 10000 µM [7]: 42 ± 0.8 mm
- IC50 at 24 h [8]: 26.9 ± 5.87 µM
- Cytotoxicity (in words) [9]: moderate cytotoxicity

Compound: O=c1c2cc(O)ccc2oc2cccc(O)c12 [Compound 4]
- RFI ± SD (relative fluorescence index) [1]: 0.13 ± 0.08 ^2
- RFI ± SD (relative fluorescence index) [2]: 2.90 ± 0.71 ^7
- Inhibition of Biofilm Formation (%) ± SD [3]: 0 ^1%
- zone of inhibition at 10000 µM [5]: 0 mm
- zone of inhibition at 10000 µM [6]: 0 mm
- zone of inhibition at 10000 µM [7]: 0 mm
- IC50 at 24 h [8]: > 100 µM
- Cytotoxicity (in words) [9]: no cytotoxicity was observed
- activity against extended-spectrum β-lactamase producing strain (in words) [10]: not active
